Entries after “also recorded” stand apart in the source; their conditions may differ.

What all share (design): species or system human
Assay [1] relates to circular strips of implanted engineered sphincter and gut segments. Briefly: Real time force generation of circular strips of harvested sphincters and gut tissues.
Assay [2] deals with circular strips of hTEB. Briefly: Organ bath studies of hTEB circular strips following omentum implantation.
Assay [3] concerns sphincter and rectal cuff cross sections. Briefly: Physiological studies on cross sections of harvested sphincter and rectal cuff.

Turning to `COC(=O)[C@@H](N)CCCNC(=N)N[N+](=O)[O-].Cl` [LNAME, Nω-Nitro-L-arginine methyl ester hydrochloride], the “EFS-induced relaxation after LNAME pre-treatment” value is recorded as −223±29 in assay [1] (gut segments, without LNAME −355±8 μN, in µN) and −140±6 μN in assay [1] (sphincters, without LNAME −294±26 μN). The “effect on magnitude of EFS-induced relaxation” value in assay [1] (pre-incubation of implants with LNAME) is “significantly reduced”. The “inhibition of EFS-induced relaxation” value in assay [2] (pretreatment with LNAME) worked out at 50%.

As to `CN1[C@@H]2CC[C@H]1C[C@@H](OC(=O)C(CO)c1ccccc1)C2` (stereo partly shown) [atropine], the “effect on ACh-induced contraction” value in assay [2] is “did not cause a contraction; also recorded: inhibited”.

Take `NC1=N[C@H](O)[C@H]2[C@H]3O[C@]4(O)O[C@@H]([C@@H](O)[C@@]2(N1)[C@@H]4O)[C@]3(O)CO` [TTX, tetrodotoxin]: in assay [3], the “effect on Ach-induced contraction” value was “significantly attenuated”. The “effect on EFS-induced relaxation” value in assay [3] was “completely inhibited”; in assay [1], “completely abolished”; in assay [2], “abolished”. For the same compound, in assay [3], the “effect on VIP-induced relaxation” value is “significantly diminished”.

The record behind these values is US10828143B2, “Tissue-engineered bowel constructs” (Wake Forest University Health Sciences, priority 2015, dated 2020).
